The values below come from ChEMBL document CHEMBL5465560, “Selectivity Literature for EUbOPEN Chemogenomic Library” (2024).

Experiment [1] concerns the target CDK9/cyclin T1 (Homo sapiens) (UniProt O60563+P50750). As to the kind of experiment: Selectivity interaction (Adapta Assay) EUB0001632a CDK9. It counts as protein-complex assay. As to conditions: at 10 µM.
Experiment [2] has as its target cAMP-dependent protein kinase catalytic subunit beta (Homo sapiens) (UniProt P22694). As to the kind of experiment: Selectivity interaction (KinomeScan (DiscoverX)) EUB0001619a PRKACB. The settings on record: at 1 µM.
Experiment [3] addresses STE20-like serine/threonine-protein kinase (Homo sapiens, UniProt Q9H2G2). The settings on record: at 10 µM.
In experiment [4] the target is Mitogen-activated protein kinase kinase kinase kinase 5 (Homo sapiens) (UniProt Q9Y4K4). In words: Selectivity interaction (KinomeScan (DiscoverX)) EUB0000666a MAP4K5. As to conditions: at 10 µM.
Experiment [5] addresses Serine/threonine-protein kinase RIO2 (Homo sapiens) (UniProt Q9BVS4). As to the kind of experiment: Selectivity interaction (KinomeScan (DiscoverX)) EUB0000607a RIOK2. The settings on record: at 10 µM.
For experiment [6], the target named is Calcium/calmodulin-dependent protein kinase type 1 (Homo sapiens) (UniProt Q14012). In words: Selectivity interaction (KinomeScan (DiscoverX)) EUB0000607a CAMK1. The settings on record: at 10 µM.
The target of experiment [7] is Serine/threonine-protein kinase Nek6 (Homo sapiens) (UniProt Q9HC98). As to the kind of experiment: Selectivity interaction (SelectScreen profiling (Invitrogen)) EUB0000607a NEK6. The settings on record: at 2 µM.
The target of experiment [8] is Serine/threonine-protein kinase tousled-like 2 (Homo sapiens) (UniProt Q86UE8). The settings on record: at 10 µM.
The target of experiment [9] is T1, Ribosomal protein S6 kinase delta-1 (Homo sapiens) (UniProt Q96S38).
T1 sequence (whole entry): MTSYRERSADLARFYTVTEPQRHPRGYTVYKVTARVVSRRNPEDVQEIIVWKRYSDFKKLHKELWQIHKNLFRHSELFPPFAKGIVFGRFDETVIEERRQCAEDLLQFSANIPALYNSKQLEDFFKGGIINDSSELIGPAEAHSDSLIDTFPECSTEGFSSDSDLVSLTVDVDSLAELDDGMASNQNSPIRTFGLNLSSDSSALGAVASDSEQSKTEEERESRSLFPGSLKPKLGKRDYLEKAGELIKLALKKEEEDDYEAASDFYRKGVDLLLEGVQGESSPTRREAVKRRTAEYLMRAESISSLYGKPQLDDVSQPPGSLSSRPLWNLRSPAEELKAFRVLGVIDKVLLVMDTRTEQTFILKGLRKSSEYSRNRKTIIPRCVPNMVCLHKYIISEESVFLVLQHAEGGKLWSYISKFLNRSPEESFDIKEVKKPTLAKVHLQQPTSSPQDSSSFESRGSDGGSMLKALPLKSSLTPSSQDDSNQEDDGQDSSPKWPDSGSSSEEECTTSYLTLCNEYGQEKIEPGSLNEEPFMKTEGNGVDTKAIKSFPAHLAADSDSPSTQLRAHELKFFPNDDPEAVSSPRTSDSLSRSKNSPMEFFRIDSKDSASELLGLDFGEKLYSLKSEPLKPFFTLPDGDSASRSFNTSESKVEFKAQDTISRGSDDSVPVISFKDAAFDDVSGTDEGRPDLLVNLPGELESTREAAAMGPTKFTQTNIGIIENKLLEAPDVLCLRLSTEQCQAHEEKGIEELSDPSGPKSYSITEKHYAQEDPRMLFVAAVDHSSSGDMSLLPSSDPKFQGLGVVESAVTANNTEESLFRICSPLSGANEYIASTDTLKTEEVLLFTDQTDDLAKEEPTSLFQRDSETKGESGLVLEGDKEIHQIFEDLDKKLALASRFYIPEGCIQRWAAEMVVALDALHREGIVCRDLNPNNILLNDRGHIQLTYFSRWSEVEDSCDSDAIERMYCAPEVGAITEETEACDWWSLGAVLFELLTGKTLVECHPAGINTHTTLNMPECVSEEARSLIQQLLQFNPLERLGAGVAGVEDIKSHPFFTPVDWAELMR
In words: Selectivity interaction (ActivX KiNativ screen (kinase selectivity in THP-1 cell lysates)) EUB0000639a RPS6KC1. It counts as subcellular. As to conditions: lysate.

The target of experiment [10] is Platelet-derived growth factor receptor alpha (Homo sapiens, UniProt P16234). As to the kind of experiment: Selectivity interaction (Kinase panel (Invitrogen)) EUB0000639a PDGFRA. The settings on record: at 200 nM.
Experiment [11] has as its target Casein kinase II subunit alpha (Homo sapiens, UniProt P68400). In words: Selectivity interaction (Kinase panel (literature)) EUB0001199aCl CSNK2A1. The settings on record: at 1 µM.
Experiment [12] concerns the target Homeodomain-interacting protein kinase 3 (Homo sapiens, UniProt Q9H422). In words: Selectivity interaction (Ambit KINOMEscan and KiNATiv profiling in Jurkat cells) EUB0000090b HIPK3. It counts as cell-based. The settings on record: at 1 µM.
Experiment [13] has as its target Calcium/calmodulin-dependent protein kinase type 1B (Homo sapiens) (UniProt Q6P2M8). As to the kind of experiment: Selectivity interaction (KinomeScan (DiscoverX)) EUB0001049a PNCK. The settings on record: at 1 µM.
For experiment [14], the target named is Death-associated protein kinase 2 (Homo sapiens) (UniProt Q9UIK4). In words: Selectivity interaction (Upstate Kinase Profiler service (Millipore)) EUB0000056c DAPK2. As to conditions: at 1 µM.
Experiment [15] has as its target Serine/threonine-protein kinase 38-like (Homo sapiens) (UniProt Q9Y2H1). In words: Selectivity interaction (KinomeScan (DiscoverX)) EUB0001079a STK38L. The settings on record: at 1 µM.
In experiment [16] the target is T2, Serine/threonine-protein kinase Nek8 (Homo sapiens) (UniProt Q86SG6).
T2 sequence (whole entry): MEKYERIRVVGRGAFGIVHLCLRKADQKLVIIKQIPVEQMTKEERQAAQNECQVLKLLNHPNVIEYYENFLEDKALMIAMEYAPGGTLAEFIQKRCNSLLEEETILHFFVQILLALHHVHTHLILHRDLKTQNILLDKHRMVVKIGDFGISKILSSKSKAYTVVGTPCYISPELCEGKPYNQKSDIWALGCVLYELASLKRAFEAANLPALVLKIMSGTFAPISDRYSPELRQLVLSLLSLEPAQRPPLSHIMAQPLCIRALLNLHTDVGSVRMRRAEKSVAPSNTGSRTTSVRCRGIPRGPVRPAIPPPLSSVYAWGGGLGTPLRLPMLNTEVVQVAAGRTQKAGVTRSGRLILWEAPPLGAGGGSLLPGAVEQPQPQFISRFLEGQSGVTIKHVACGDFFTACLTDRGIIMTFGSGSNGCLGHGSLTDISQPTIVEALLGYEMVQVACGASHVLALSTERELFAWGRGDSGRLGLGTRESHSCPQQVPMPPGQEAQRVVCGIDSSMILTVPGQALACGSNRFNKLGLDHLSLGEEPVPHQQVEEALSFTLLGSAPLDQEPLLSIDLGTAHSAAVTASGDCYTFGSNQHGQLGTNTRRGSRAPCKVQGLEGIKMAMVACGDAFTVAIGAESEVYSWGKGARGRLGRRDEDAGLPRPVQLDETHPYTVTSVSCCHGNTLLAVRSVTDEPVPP
In words: Selectivity interaction (Kinase panel (KiNativ target engagement assay in Jurkat cells)) EUB0001635a NEK8. The settings on record: at 1 µM. The experiment is classed as cell-based.

Casein kinase II subunit alpha, sequence (P68400 whole entry, looked up): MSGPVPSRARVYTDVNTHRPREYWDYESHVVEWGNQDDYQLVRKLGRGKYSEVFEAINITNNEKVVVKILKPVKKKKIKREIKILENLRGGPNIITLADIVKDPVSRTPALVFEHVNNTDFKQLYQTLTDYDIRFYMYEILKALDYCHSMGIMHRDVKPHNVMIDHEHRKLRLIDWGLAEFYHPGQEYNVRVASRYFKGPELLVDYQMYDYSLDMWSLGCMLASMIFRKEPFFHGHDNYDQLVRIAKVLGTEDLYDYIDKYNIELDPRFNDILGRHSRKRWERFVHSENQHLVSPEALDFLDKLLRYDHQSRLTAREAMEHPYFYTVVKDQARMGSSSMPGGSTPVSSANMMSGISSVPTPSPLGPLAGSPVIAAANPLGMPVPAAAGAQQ
Platelet-derived growth factor receptor alpha, sequence (P16234 whole entry): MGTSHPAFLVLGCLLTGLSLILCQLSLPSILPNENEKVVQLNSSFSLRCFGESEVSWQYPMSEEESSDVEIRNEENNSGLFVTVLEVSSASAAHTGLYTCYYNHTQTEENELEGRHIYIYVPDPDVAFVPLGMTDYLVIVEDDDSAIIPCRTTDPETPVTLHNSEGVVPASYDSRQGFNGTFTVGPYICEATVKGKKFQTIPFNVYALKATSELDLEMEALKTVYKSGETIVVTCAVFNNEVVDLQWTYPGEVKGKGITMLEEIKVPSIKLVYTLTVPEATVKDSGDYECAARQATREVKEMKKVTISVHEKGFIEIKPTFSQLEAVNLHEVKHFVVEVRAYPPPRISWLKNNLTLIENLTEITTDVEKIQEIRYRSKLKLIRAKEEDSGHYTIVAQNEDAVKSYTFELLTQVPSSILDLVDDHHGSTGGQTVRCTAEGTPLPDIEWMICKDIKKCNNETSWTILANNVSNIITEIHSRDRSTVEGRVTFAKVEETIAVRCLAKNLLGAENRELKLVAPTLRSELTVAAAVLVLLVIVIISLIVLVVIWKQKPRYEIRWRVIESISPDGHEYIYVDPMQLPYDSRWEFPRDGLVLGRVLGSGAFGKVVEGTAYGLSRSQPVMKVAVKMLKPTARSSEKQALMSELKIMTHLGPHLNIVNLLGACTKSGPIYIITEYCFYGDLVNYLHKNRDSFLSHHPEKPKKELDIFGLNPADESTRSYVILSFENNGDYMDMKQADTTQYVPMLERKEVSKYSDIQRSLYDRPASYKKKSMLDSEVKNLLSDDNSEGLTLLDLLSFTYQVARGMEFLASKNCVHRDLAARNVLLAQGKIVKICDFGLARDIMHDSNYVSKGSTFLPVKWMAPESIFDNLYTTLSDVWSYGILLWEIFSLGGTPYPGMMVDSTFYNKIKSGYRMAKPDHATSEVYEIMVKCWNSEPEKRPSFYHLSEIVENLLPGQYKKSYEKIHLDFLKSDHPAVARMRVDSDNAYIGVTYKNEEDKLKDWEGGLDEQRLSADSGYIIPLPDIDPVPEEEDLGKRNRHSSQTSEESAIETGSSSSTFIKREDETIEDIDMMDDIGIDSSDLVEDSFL
Calcium/calmodulin-dependent protein kinase type 1B (Homo sapiens), sequence (Q6P2M8 whole entry): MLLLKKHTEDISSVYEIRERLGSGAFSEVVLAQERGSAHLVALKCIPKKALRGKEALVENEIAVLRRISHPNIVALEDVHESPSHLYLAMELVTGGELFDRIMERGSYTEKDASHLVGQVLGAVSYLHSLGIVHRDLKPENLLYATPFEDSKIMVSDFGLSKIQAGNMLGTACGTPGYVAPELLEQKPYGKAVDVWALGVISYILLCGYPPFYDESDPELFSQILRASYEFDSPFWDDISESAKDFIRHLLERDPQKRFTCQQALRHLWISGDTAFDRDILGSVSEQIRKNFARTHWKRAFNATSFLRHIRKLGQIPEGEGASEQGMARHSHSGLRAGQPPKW
STE20-like serine/threonine-protein kinase, sequence (Q9H2G2 whole entry, looked up): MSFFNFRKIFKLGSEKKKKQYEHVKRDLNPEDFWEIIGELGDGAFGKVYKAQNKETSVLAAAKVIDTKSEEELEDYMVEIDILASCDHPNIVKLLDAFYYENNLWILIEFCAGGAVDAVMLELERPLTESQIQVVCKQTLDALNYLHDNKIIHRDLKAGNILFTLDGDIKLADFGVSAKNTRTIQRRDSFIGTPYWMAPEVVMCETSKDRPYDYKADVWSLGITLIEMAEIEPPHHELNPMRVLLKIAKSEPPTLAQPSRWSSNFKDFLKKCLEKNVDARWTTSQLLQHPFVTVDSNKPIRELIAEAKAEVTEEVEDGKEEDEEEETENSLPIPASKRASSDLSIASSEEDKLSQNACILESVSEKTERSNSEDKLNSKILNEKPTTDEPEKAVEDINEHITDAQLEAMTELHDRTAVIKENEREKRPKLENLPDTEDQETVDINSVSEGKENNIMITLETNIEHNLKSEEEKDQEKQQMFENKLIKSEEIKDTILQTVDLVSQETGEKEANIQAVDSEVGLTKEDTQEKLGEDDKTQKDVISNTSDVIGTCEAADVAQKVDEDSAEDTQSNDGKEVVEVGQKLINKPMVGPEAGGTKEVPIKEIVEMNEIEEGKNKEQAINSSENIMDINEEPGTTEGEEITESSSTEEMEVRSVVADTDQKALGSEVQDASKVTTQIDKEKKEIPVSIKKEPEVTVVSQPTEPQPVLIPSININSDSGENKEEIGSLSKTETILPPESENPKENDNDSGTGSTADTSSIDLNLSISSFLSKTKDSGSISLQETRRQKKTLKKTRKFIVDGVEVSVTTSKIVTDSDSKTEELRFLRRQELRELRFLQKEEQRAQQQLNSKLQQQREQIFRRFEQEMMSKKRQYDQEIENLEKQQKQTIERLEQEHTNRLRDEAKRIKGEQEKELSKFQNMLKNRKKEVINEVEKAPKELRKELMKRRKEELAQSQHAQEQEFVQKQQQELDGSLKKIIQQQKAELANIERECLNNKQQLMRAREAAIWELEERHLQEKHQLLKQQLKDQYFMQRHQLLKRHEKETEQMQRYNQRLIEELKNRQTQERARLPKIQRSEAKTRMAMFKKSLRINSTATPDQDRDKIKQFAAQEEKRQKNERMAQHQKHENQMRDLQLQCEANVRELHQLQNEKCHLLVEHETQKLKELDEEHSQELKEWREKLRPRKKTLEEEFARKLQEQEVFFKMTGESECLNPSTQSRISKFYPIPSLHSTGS
Death-associated protein kinase 2 (Homo sapiens), sequence (Q9UIK4 whole entry, looked up): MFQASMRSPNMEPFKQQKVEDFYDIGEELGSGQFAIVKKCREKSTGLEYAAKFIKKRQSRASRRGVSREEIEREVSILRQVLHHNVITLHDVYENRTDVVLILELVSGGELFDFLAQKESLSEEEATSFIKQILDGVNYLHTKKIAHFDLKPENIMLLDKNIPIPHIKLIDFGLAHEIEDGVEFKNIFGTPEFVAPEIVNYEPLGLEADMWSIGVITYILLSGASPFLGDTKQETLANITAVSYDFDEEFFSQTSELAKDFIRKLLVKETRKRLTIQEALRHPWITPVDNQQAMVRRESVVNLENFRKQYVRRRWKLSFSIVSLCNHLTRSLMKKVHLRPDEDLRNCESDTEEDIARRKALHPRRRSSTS
Serine/threonine-protein kinase RIO2 (Homo sapiens), sequence (Q9BVS4 whole entry, looked up): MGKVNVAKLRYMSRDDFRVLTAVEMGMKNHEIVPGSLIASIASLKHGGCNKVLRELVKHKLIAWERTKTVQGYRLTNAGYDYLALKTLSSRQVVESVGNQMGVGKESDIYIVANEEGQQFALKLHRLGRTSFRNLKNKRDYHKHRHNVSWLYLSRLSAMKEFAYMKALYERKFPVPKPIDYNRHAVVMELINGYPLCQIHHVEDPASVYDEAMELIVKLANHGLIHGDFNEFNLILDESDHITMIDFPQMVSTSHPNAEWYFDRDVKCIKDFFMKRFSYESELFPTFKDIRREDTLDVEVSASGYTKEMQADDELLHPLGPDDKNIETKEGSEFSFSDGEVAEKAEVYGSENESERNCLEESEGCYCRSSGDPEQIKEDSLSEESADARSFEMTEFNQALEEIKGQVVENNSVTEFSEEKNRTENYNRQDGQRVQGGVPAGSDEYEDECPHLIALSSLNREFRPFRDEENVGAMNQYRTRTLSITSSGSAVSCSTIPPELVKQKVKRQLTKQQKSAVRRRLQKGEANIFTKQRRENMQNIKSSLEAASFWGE
Serine/threonine-protein kinase 38-like (Homo sapiens), sequence (Q9Y2H1 2-464 limits assumed): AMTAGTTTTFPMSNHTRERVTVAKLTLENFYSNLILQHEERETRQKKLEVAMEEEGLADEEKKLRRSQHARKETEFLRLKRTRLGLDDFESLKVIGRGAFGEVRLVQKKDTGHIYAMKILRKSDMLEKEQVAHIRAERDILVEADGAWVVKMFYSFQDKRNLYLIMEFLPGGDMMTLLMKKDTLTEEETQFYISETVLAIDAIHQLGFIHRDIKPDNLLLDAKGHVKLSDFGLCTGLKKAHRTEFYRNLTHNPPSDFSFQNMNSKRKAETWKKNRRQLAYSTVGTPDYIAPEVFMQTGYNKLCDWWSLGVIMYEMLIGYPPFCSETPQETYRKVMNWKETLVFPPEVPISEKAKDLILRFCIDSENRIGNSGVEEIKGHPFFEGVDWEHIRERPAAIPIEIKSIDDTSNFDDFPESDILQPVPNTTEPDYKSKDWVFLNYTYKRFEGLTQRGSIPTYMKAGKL
Serine/threonine-protein kinase Nek6 (Homo sapiens), sequence (Q9HC98 whole entry): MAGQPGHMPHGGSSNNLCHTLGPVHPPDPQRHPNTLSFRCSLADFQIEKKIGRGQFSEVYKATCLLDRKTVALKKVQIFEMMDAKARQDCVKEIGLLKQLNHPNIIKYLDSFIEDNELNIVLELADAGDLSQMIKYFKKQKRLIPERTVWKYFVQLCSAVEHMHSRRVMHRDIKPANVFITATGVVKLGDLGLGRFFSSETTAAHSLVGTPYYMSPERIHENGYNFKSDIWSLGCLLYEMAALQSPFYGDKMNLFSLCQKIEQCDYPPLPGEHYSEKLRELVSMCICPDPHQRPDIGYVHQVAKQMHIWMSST

With `Cn1cc(-n2cnc3c(NCc4nc5cc(Cl)c(Cl)cc5[nH]4)nc(N4CCOCC4)nc32)cn1`, in [1], the % of inhibition came out at 63.9%.
Compound `N#Cc1cccc(-c2c[nH]c3ncnc(N4CCOCC4)c23)c1` showed a % of control in experiment [2] of 84%.
`CCN(CC)CCCCNc1ncc2cc(-c3cc(OC)cc(OC)c3)c(NC(=O)NC(C)(C)C)nc2n1`: the % of control in experiment [3] came out at 100%.
For `O=C(NOC[C@H](O)CO)c1ccc(F)c(F)c1Nc1ccc(I)cc1F`, the % of control in [4] was 69%.
Take `CNC(=O)Nc1ccc(-c2nc(N3CC4CCC(C3)O4)c3cnn(C4CCC5(CC4)OCCO5)c3n2)cc1`: the values for the % of control in [5] and in experiment [6] were 90% and 93%, respectively. The % of inhibition in [7] came to 12%.
`Cc1cc([C@@H](C)Nc2ccccc2C(=O)O)c2nc(N3CCOCC3)cc(=O)n2c1` [AZD-6482]: the % of control in experiment [8] was determined as 88%.
Regarding `CC[C@@H]1[C@H](F)C(=O)N[C@@H]1COc1nccc2cc(C(N)=O)c(OC)cc12` [ZIMLOVISERTIB], the % of inhibition was 11.8% in experiment [9] (at 0.01 µM); -10.9% in [9] (at 0.04 µM); -1.8% in [9] (at 0.2 µM); 9.6% in [9] (at 1 µM); 8.3% in [9] (at 5 µM); 9.99% in [10].
With `CN1Cc2nccc(-c3cn(C)nc3-c3ccc(F)cc3)c2C1=O`, in experiment [11], the % of inhibition was -3%.
Turning to `CN(C)C/C=C/C(=O)Nc1ccc(C(=O)N2CCCC(Nc3ncc(Cl)c(-c4c[nH]c5ccccc45)n3)C2)cc1` (stereo not given), the % of control in [12] came to 85%.
Regarding `COc1cc(Nc2nc(C)cc(-c3cnn4nc(OC)ccc34)n2)cc(C(F)(F)F)c1`, in experiment [13], the % of control turned out to be 100%.
With `Cc1ccc(-c2ccc3c(ccc4sc5c(c43)NC[C@@H](C)NC5=O)n2)cn1`, in experiment [14], the % of inhibition was 30%.
`Nc1cnc(N2CCc3cc(S(=O)(=O)Nc4c(F)cc(Cl)cc4F)cc(N4CCCC4=O)c32)nc1` [TP-020n] came in with a % of control in [15] of 42%.
In the case of `C=CC(=O)Nc1ccc(C(=O)Nc2[nH]nc3c2CN(C(=O)N[C@H](CN(C)C)c2ccccc2)C3(C)C)cc1`, the % of engagement in experiment [16] was -10.5%.
